Measured values from patent US12364713B2, “Coagulation mold, a kit and a method for preparing a coagulated blood mass” (Reddress Ltd., priority 2022, dated 2025).
Several values for one entry are separate records, joined by “and”; a condition that tells them apart may be missing. Identical values can stand only once.

System: whole blood
Assay: Calcium Gluconate (CG) Powder Test: coagulation of whole blood with varying CG amounts
Procedure: A standard amount of ACD-A anticoagulant and Kaoiln powder per 1 ml of whole blood was used • 2 ml of ACD-A for 15 ml blood=0.133 ml ACD-A/1 ml blood • 28 mg Kaolin powder for 15 ml blood=1.87 mg Kaolin/1 ml blood
Different amounts of CG where tested-CG particle size after sifting is 125 micron • 20 mg for 15 ml of blood=1.33 mgCG/1 ml blood • 50 mg for 15 ml of blood=3.33 mgCG/1 ml blood • 85 mg for 15 ml of blood=5.66 mgCG/1 ml blood • 110 mg for 15 ml of blood=7.33 mgCG/1 ml blood • 140 mg for 15 ml of blood=9.33 mgCG/1 ml blood
Coagulation time and clot structure strength were documented. Blood samples of 5 different volunteers were used.

[1] = 20 mg CG for 15 ml blood, Average of 5 volunteers
[2] = 50 mg CG for 15 ml blood, Average of 5 volunteers
[3] = 85 mg CG for 15 ml blood, Average of 5 volunteers
[4] = 110 mg CG for 15 ml blood, Average of 5 volunteers
[5] = 140 mg CG for 15 ml blood, Average of 5 volunteers

Calcium Gluconate [CG] was tested, and the Coagulation time (20 mg CG for 15 ml blood, 2 ml ACD-A, 28 mg Kaolin, individual volunteers #1-#5, good time is under 6 minutes) was 17 and 14 and 12 and 14.5 and 15, the Clot strength [1] was “Low” and the Coagulation time [1] was 14.5. The Clot strength (20 mg CG for 15 ml blood, individual volunteers, visual) was “Low”, the Coagulation time (50 mg CG for 15 ml blood, 2 ml ACD-A, 28 mg Kaolin, individual volunteers #1-#5, good time is under 6 minutes) was 6.7 and 5.4 and 6 and 6.6 and 6.8 and the Clot strength [2] was “Medium”. For the same substance, the Coagulation time [2] was 6.3, the Clot strength (50 mg CG for 15 ml blood, individual volunteers, visual) was “Medium” and the Coagulation time (85 mg CG for 15 ml blood, 2 ml ACD-A, 28 mg Kaolin, individual volunteers #1-#5, good time is under 6 minutes) was 4.8 (2×) and 4.6 (2×) and 4.7. For the same substance, the Clot strength [3] was “Strong”, the Coagulation time [3] was 4.88 and the Clot strength (85 mg CG for 15 ml blood, individual volunteers, visual) was “Strong”. The Coagulation time (110 mg CG for 15 ml blood, 2 ml ACD-A, 28 mg Kaolin, individual volunteers #1-#5, good time is under 6 minutes) was 4.7 and 5.2 and 4.6 and 4.9 and 5, the Clot strength [4] was “Strong” and the Coagulation time [4] was 4.7. The Clot strength (110 mg CG for 15 ml blood, individual volunteers, visual) was “Strong”, the Coagulation time (140 mg CG for 15 ml blood, 2 ml ACD-A, 28 mg Kaolin, individual volunteers #1-#5, good time is under 6 minutes) was 4.8 and 4.7 and 5 and 5.2 and 4.9 and the Clot strength [5] was “Strong”. The Coagulation time [5] was 4.92 and the Clot strength (140 mg CG for 15 ml blood, individual volunteers, visual) was “Strong”.
